These results are taken from PubChem BioAssay AID1259407 (Chemical Carcinogenesis Research Information System (CCRIS), 2018).

Active and inactive are the calls of the source. No rule for the calls is given here.

The subject of this data set is CCRIS mutagenicity, Ames/micronucleus/aberration tests. As to the kind of experiment: CCRIS mutagenicity studies.
Where [1] appears, read: Test System: AMES SALMONELLA TYPHIMURIUM, Strain/Indicator: TA98, Metabolic Activation: NONE, Method: STANDARD PLATE.
Where [2] appears, read: Test System: AMES SALMONELLA TYPHIMURIUM, Strain/Indicator: TA100, Metabolic Activation: NONE, Method: STANDARD PLATE.
[3] abbreviates: Test System: AMES SALMONELLA TYPHIMURIUM, Strain/Indicator: TA1535, Metabolic Activation: NONE, Method: STANDARD PLATE.
[4] abbreviates: Test System: AMES SALMONELLA TYPHIMURIUM, Strain/Indicator: TA1537, Metabolic Activation: NONE, Method: STANDARD PLATE.

Take `Cl/C=C/CCl`: the mutagenic call reads like this: (End Point: IN VITRO CHROMOSOMAL ABERRATIONS, Test System: CHL CELLS, Metabolic Activation: RAT, LIVER, S-9, SODIUM PHENOBARBITAL AND 5,6-BENZOFLAVONE) “active; positive (structural and ploidy changes)”; (End Point: IN VITRO CHROMOSOMAL ABERRATIONS, Test System: CHO CELLS, Metabolic Activation: NONE) “inactive; negative; previous trial yielded positive result at 49.1 ug/ml but no dose-respo”; (End Point: IN VITRO CHROMOSOMAL ABERRATIONS, Test System: CHO CELLS, Metabolic Activation: RAT, LIVER, S-9, AROCLOR 1254) “inactive; negative”; (Test System: AMES SALMONELLA TYPHIMURIUM, Strain/Indicator: RSJ100, Metabolic Activation: NONE, Method: VAPOR PHASE) “active; positive”; (Test System: AMES SALMONELLA TYPHIMURIUM, Strain/Indicator: TA98, Metabolic Activation: HAMSTER, LIVER, S-9, AROCLOR 1254, Method: STANDARD PLATE) “active; positive”; (Test System: AMES SALMONELLA TYPHIMURIUM, Strain/Indicator: TA98, Metabolic Activation: NONE, Method: DESICCATOR) “active; positive”. Besides, the mutagenic call is “active; positive” under setting [1]; “active; positive” (Test System: AMES SALMONELLA TYPHIMURIUM, Strain/Indicator: TA98, Metabolic Activation: RAT, LIVER, S-9, AROCLOR 1254, Method: DESICCATOR); “active; positive” (Test System: AMES SALMONELLA TYPHIMURIUM, Strain/Indicator: TA98, Metabolic Activation: RAT, LIVER, S-9, AROCLOR 1254, Method: STANDARD PLATE); “active; positive” (Test System: AMES SALMONELLA TYPHIMURIUM, Strain/Indicator: TA100, Metabolic Activation: HAMSTER, LIVER, S-9, AROCLOR 1254, Method: STANDARD PLATE); “active; positive” (Test System: AMES SALMONELLA TYPHIMURIUM, Strain/Indicator: TA100, Metabolic Activation: NONE, Method: DESICCATOR); “active; positive” under setting [2]. Besides, the mutagenic call (Test System: AMES SALMONELLA TYPHIMURIUM, Strain/Indicator: TA100, Metabolic Activation: RAT, LIVER, S-9, AROCLOR 1254, Method: DESICCATOR) was “active; positive”; the mutagenic call (Test System: AMES SALMONELLA TYPHIMURIUM, Strain/Indicator: TA100, Metabolic Activation: RAT, LIVER, S-9, AROCLOR 1254, Method: STANDARD PLATE) is “active; positive”; the mutagenic call (Test System: AMES SALMONELLA TYPHIMURIUM, Strain/Indicator: TA1535, Metabolic Activation: HAMSTER, LIVER, S-9, AROCLOR 1254, Method: STANDARD PLATE) was “active; positive”; the mutagenic call (Test System: AMES SALMONELLA TYPHIMURIUM, Strain/Indicator: TA1535, Metabolic Activation: NONE, Method: DESICCATOR) was “active; positive”; the mutagenic call under setting [3] was “active; positive”; the mutagenic call (Test System: AMES SALMONELLA TYPHIMURIUM, Strain/Indicator: TA1535, Metabolic Activation: RAT, LIVER, S-9, AROCLOR 1254, Method: DESICCATOR) is “active; positive”. The mutagenic call by setting is: (Test System: AMES SALMONELLA TYPHIMURIUM, Strain/Indicator: TA1535, Metabolic Activation: RAT, LIVER, S-9, AROCLOR 1254, Method: STANDARD PLATE) “active; positive”; (Test System: AMES SALMONELLA TYPHIMURIUM, Strain/Indicator: TA1537, Metabolic Activation: HAMSTER, LIVER, S-9, AROCLOR 1254, Method: STANDARD PLATE) “inactive; negative”; under setting [4], “inactive; negative”; (Test System: AMES SALMONELLA TYPHIMURIUM, Strain/Indicator: TA1537, Metabolic Activation: RAT, LIVER, S-9, AROCLOR 1254, Method: STANDARD PLATE) “inactive; negative”; (Test System: AMES SALMONELLA TYPHIMURIUM, Strain/Indicator: TPT100, Metabolic Activation: NONE, Method: VAPOR PHASE) “active; positive”; (Test System: UDS HUMAN HEPATOCYTES, Strain/Indicator: THY INCORP, Metabolic Activation: NONE, Method: AUTORADIOGRAPHY) “active; positive”. The mutagenic call reads like this: (Test System: UDS RAT HEPATOCYTES, Strain/Indicator: THY INCORP, Metabolic Activation: NONE, Method: AUTORADIOGRAPHY) “active; positive”; (Test System: UDS RAT HEPATOCYTES, Strain/Indicator: THY INCORP, Metabolic Activation: NONE, Method: IN VIVO-IN VITRO) “inactive; negative”.
For the compound `CCCCCCCCCCCCCc1ccccc1`, the mutagenic call is “inactive; negative” under setting [1]; “inactive; negative” (Test System: AMES SALMONELLA TYPHIMURIUM, Strain/Indicator: TA98, Metabolic Activation: RAT, LIVER, S-9, AROCLOR 1254 (10%), Method: STANDARD PLATE); “inactive; negative” under setting [2]; “inactive; negative” (Test System: AMES SALMONELLA TYPHIMURIUM, Strain/Indicator: TA100, Metabolic Activation: RAT, LIVER, S-9, AROCLOR 1254 (10%), Method: STANDARD PLATE); “inactive; negative” under setting [3]; “inactive; negative” (Test System: AMES SALMONELLA TYPHIMURIUM, Strain/Indicator: TA1535, Metabolic Activation: RAT, LIVER, S-9, AROCLOR 1254 (10%), Method: STANDARD PLATE). In addition, the mutagenic call runs as follows: under setting [4], “inactive; negative”; (Test System: AMES SALMONELLA TYPHIMURIUM, Strain/Indicator: TA1537, Metabolic Activation: RAT, LIVER, S-9, AROCLOR 1254 (10%), Method: STANDARD PLATE) “inactive; negative”; (Test System: CHINESE HAMSTER OVARY, Strain/Indicator: CHO (HGPRT), Metabolic Activation: NONE) “inactive; negative”; (Test System: CHINESE HAMSTER OVARY, Strain/Indicator: CHO (HGPRT), Metabolic Activation: RAT, LIVER, S-9, AROCLOR 1254 (1%)) “inactive; negative”.
On to `O=[N+]([O-])c1ccc2c(c1)-c1nc3ccccc3c3c1c-2nc1ccccc13`, for which the mutagenic call by setting is: under setting [1], “active; positive”; (Test System: AMES SALMONELLA TYPHIMURIUM, Strain/Indicator: TA98, Metabolic Activation: RAT LIVER S-9, AROCLOR 1254, Method: STANDARD PLATE) “active; positive”; (Test System: ESCHERICHIA COLI, Strain/Indicator: WP2 UVR A, Metabolic Activation: NONE, Method: STANDARD PLATE) “inactive; negative”; (Test System: ESCHERICHIA COLI, Strain/Indicator: WP2 UVR A, Metabolic Activation: RAT LIVER S-9, AROCLOR 1254, Method: STANDARD PLATE) “inactive; negative”.
